In article PMC10455339, “Combining the Peptide RWQWRWQWR and an Ethanolic Extract of Bidens pilosa Enhances the Activity against Sensitive and Resistant Candida albicans and C. auris Strains” (Journal of Fungi, 2023):
Values after ≈ are worked out from the molar mass of the structure shown. Where two headings read alike, the source gives them in different places.

Tests used:
C. albicans 256-PUJ-HUSI = test: Antifungal activity (MIC/MFC), broth microdilution; assay type: cell-based, Candida albicans; conditions: Candida albicans, 256PUJHUSI, FLC-resistant isolate, n = 3; for MIC: CLSI M27-A4 modified, RPMI 1640, 37 °C, 48 h, MIC = 50% growth inhibition, read-out: MIC; for MFC: subculture on SDA 24 h 37 °C, MFC = eliminates 100% of growth, read-out: MFC
Experimental: (§1) For the determination of the MICs, the guidelines of the Clinical Laboratory Standards Institute (CLSI BMD-M27-A4) were used with some modifications. Serial dilutions were made, for peptides from 6.25 to 200 µg/mL and for extracts from 31.2 to 2000 µg/mL, with RPMI 1640 medium in a 96-well microdilution plate (100 µL), and then 100 µL of the adjusted inoculum (0.5–2.5 × 10^3 cells/mL) was added and incubated at 37 °C, and visual and spectrophotometric reading (595 nm) was performed at 48 h. Controls: growth control in RPMI or DMSO, control with a known antifungal: FLC, C. albicans SC5314 (1 µg/mL), C. albicans 256 (64 µg/mL), C. auris 435 (8 µg/mL), and C. auris 537 (128 µg/mL), sterility controls correspond to RPMI medium and SS. The MIC was defined as the minimum concentration of peptide or extract that inhibited 50% of growth compared to the control. To determine the minimal fungicidal concentration (MFC), from the concentrations where no growth was observed, including the controls, a subculture was made on SDA and incubated for 24 h at 37 °C. The MFC was defined as the minimum concentration of peptide or extract that eliminated 100% of the growth compared to the control (n = 3).

C. albicans SC5314 [1] = test: microbe, parasite or virus in culture; assay type: cell-based, Candida albicans; conditions: Candida albicans, SC5314, n = 3; for MIC: CLSI M27-A4 modified, RPMI 1640, 37 °C, 48 h, MIC = 50% growth inhibition, read-out: MIC; for MFC: subculture on SDA 24 h 37 °C, MFC = eliminates 100% of growth, read-out: MFC
Experimental: as §1

C. auris 435-PUJ-HUSI = test: Antifungal activity (MIC/MFC), broth microdilution; assay type: cell-based, Candida auris; conditions: Candidozyma auris, 435PUJHUSI, FLC-sensitive isolate, n = 3; for MIC: CLSI M27-A4 modified, RPMI 1640, 37 °C, 48 h, MIC = 50% growth inhibition, read-out: MIC; for MFC: subculture on SDA 24 h 37 °C, MFC = eliminates 100% of growth, read-out: MFC
Experimental: as §1

C. auris 537-PUJ-HUSI = test: Antifungal activity (MIC/MFC), broth microdilution; assay type: cell-based, Candida auris; conditions: Candidozyma auris, 537PUJHUSI, FLC- and AmB-resistant isolate, n = 3; for MIC: CLSI M27-A4 modified, RPMI 1640, 37 °C, 48 h, MIC = 50% growth inhibition, read-out: MIC; for MFC: subculture on SDA 24 h 37 °C, MFC = eliminates 100% of growth, read-out: MFC
Experimental: as §1

C. albicans 256 [2] = test system: C. albicans 256
Experimental: (§2) This was performed using the checkerboard test, with some adjustments. Briefly, peptide or extract with FLC, peptide with extract, and extract, peptide, and FLC (final concentrations: 0, 0.06, 0.12, 0.25, 0.50, 1, and 2 times the MIC) were mixed. […] The fractional inhibitory concentration index (FIC I) was calculated as follows: [A/MIC A] + [P/MIC P] = FIC I, where MIC A and MIC P are the MICs of the individual peptide, extract, and/or antifungal. A and P are the MICs of the same, but in combination.
(§3) The combinations were classified as synergistic (FIC I ≤ 0.5), additive (FIC I > 0.5–1), indifferent (FIC I > 1 < 4), or antagonistic (FIC I > 4).

C. auris 537 [3] = test system: C. auris 537
Experimental: as §2, §3

C. albicans SC5314 [4] = test system: C. albicans SC5314
Experimental: as §2, §3

C. auris 435 = test system: C. auris 435
Experimental: as §2, §3

C. albicans 256 [5] = conditions: previously published, cited from earlier work
Experimental: (§4) Table 5 Synergy test. Combination of R-1-R with FLC against C. albicans and C. auris. | column: MICR-1-R; MICFLC; R-1-R; FLC; FIC Index; MICR-1-R/R-1-R; MICFLC/FLC || Initially, the antifungal activity of mixtures of R-1-R/FLC against the C. albicans and C. auris strains was evaluated (Table 5). […] The MIC value of FLC in C. albicans SC5314 was reduced by a factor of 2, while that in C. albicans 256 was reduced by a factor of 8.

C. auris 537 [6] = conditions: previously published, cited from earlier work
Experimental: as §4

C. albicans = conditions: cited from earlier work
Excerpt: Antifungal activity of other phenolic acids, such as chlorogenic acid, has been reported against Candida spp. resistant to FLC, generating a death process similar to apoptosis.

[7] = B. pilosa extract combined with FLC
[8] = B. pilosa extract combined with FLC, checkerboard, 37 °C, 48 h
[9] = B. pilosa extract, R-1-R and FLC combined
[10] = B. pilosa extract, R-1-R and FLC combined, checkerboard, 37 °C, 48 h
[11] = R-1-R combined with FLC, checkerboard, 37 °C, 48 h

Compound: O=C(O)/C=C/c1ccc(O)c(O)c1 [Caffeic acid]
- MIC (C. albicans 256-PUJ-HUSI): > 2000 µg/mL
- MFC (C. albicans 256-PUJ-HUSI): > 2000 µg/mL
- MIC (C. albicans SC5314 [1]): > 2000 µg/mL
- MFC (C. albicans SC5314 [1]): > 2000 µg/mL
- MIC (C. auris 435-PUJ-HUSI): > 2000 µg/mL
- MFC (C. auris 435-PUJ-HUSI): > 2000 µg/mL
- MIC (C. auris 537-PUJ-HUSI): > 2000 µg/mL
- MFC (C. auris 537-PUJ-HUSI): > 2000 µg/mL

Compound: O=C(/C=C/c1ccc(O)c(O)c1)O[C@@H](C(=O)O)[C@@H](O)C(=O)O [Caftaric acid]
- MIC (C. albicans 256-PUJ-HUSI): > 1000 µg/mL
- MFC (C. albicans 256-PUJ-HUSI): > 1000 µg/mL
- MIC (C. albicans SC5314 [1]): > 1000 µg/mL
- MFC (C. albicans SC5314 [1]): > 1000 µg/mL
- MIC (C. auris 435-PUJ-HUSI): > 1000 µg/mL
- MFC (C. auris 435-PUJ-HUSI): > 1000 µg/mL
- MIC (C. auris 537-PUJ-HUSI): > 1000 µg/mL
- MFC (C. auris 537-PUJ-HUSI): > 1000 µg/mL

Compound: O=C(/C=C/c1ccc(O)c(O)c1)O[C@@H]1C[C@](O)(C(=O)O)C[C@@H](O)[C@H]1O [Chlorogenic acid]
- MIC (C. albicans 256-PUJ-HUSI): > 1000 µg/mL
- MFC (C. albicans 256-PUJ-HUSI): > 1000 µg/mL
- MIC (C. albicans SC5314 [1]): > 1000 µg/mL
- MFC (C. albicans SC5314 [1]): > 1000 µg/mL
- MIC (C. auris 435-PUJ-HUSI): > 1000 µg/mL
- MFC (C. auris 435-PUJ-HUSI): > 1000 µg/mL
- MIC (C. auris 537-PUJ-HUSI): > 1000 µg/mL
- MFC (C. auris 537-PUJ-HUSI): > 1000 µg/mL

Compound: OC(Cn1cncn1)(Cn1cncn1)c1ccc(F)cc1F [FLC, fluconazole]
- MIC alone/MIC in combination (factor of potentiation) (C. albicans 256 [2]; [7]): 4
- MIC in combination (E, FLC) (C. albicans 256 [2]; [8]): 32 µg/mL
- MIC alone/MIC in combination (factor of potentiation) (C. albicans 256 [2]; [9]): 8
- MIC in combination (E, R-1-R, FLC) (C. albicans 256 [2]; [10]): 4 µg/mL
- MIC alone/MIC in combination (factor of potentiation) (C. auris 537 [3]; [7]): 4
- MIC in combination (E, FLC) (C. auris 537 [3]; [8]): 32 µg/mL
- MIC alone/MIC in combination (factor of potentiation) (C. auris 537 [3]; [9]): 16
- MIC in combination (E, R-1-R, FLC) (C. auris 537 [3]; [10]): 8 µg/mL
- MIC alone/MIC in combination (factor of potentiation) (C. albicans SC5314 [4]; [7]): 2
- MIC in combination (E, FLC) (C. albicans SC5314 [4]; [8]): 0.125 µg/mL
- MIC alone/MIC in combination (factor of potentiation) (C. albicans SC5314 [4]; [9]): 8
- MIC in combination (E, R-1-R, FLC) (C. albicans SC5314 [4]; [10]): 0.06 µg/mL
- MIC alone/MIC in combination (factor of potentiation) (C. albicans SC5314 [4]; R-1-R combined with FLC): 2
- MIC in combination (R-1-R, FLC) (C. albicans SC5314 [4]; [11]): 0.0625 µg/mL
- MIC alone/MIC in combination (factor of potentiation) (C. auris 435; [7]): 1
- MIC in combination (E, FLC) (C. auris 435; [8]): 8 µg/mL
- MIC alone/MIC in combination (factor of potentiation) (C. auris 435; [9]): 4
- MIC in combination (E, R-1-R, FLC) (C. auris 435; [10]): 1 µg/mL
- MIC alone/MIC in combination (factor of potentiation) (C. auris 435; R-1-R combined with FLC): 4
- MIC in combination (R-1-R, FLC) (C. auris 435; [11]): 2 µg/mL
- MIC alone/MIC in combination (factor of potentiation) (C. albicans 256 [5]; R-1-R combined with FLC): 8
- MIC in combination (R-1-R, FLC) (C. albicans 256 [5]; R-1-R combined with FLC): 4 µg/mL
- MIC of the agent alone (MICR-1-R, MICFLC) (C. albicans 256 [5]; checkerboard R-1-R + FLC): 32 µg/mL
- MIC alone/MIC in combination (factor of potentiation) (C. auris 537 [6]; R-1-R combined with FLC): 8
- MIC in combination (R-1-R, FLC) (C. auris 537 [6]; R-1-R combined with FLC): 8 µg/mL
- MIC of the agent alone (MICR-1-R, MICFLC) (C. auris 537 [6]; checkerboard R-1-R + FLC): 64 µg/mL

Compound: O=C(O)c1cc(O)c(O)c(O)c1 [Gallic acid]
- MIC (C. albicans 256-PUJ-HUSI): 62.5 µg/mL (≈ 0.367 mM)
- MFC (C. albicans 256-PUJ-HUSI): 125 µg/mL (≈ 0.735 mM)
- MIC (C. albicans SC5314 [1]): 125 µg/mL (≈ 0.735 mM)
- MFC (C. albicans SC5314 [1]): 250 µg/mL (≈ 1.47 mM)
- MIC (C. auris 435-PUJ-HUSI): 125 µg/mL (≈ 0.735 mM)
- MFC (C. auris 435-PUJ-HUSI): 1000 µg/mL (≈ 5.88 mM)
- MIC (C. auris 537-PUJ-HUSI): 62.5 µg/mL (≈ 0.367 mM)
- MFC (C. auris 537-PUJ-HUSI): 1000 µg/mL (≈ 5.88 mM)

Compound: C[C@@H]1O[C@@H](OC[C@H]2O[C@@H](Oc3c(-c4ccc(O)c(O)c4)oc4cc(O)cc(O)c4c3=O)[C@H](O)[C@@H](O)[C@@H]2O)[C@H](O)[C@H](O)[C@H]1O [Rutin]
- MIC (C. albicans 256-PUJ-HUSI): > 2000 µg/mL
- MFC (C. albicans 256-PUJ-HUSI): > 2000 µg/mL
- MIC (C. albicans SC5314 [1]): > 2000 µg/mL
- MFC (C. albicans SC5314 [1]): > 2000 µg/mL
- Reported active concentration (C. albicans): 1000 µg/mL
- MIC (C. auris 435-PUJ-HUSI): > 2000 µg/mL
- MFC (C. auris 435-PUJ-HUSI): > 2000 µg/mL
- MIC (C. auris 537-PUJ-HUSI): > 2000 µg/mL
- MFC (C. auris 537-PUJ-HUSI): > 2000 µg/mL

Compound: FKCRRWQWRM [Peptide 2, short peptide derived from LfcinB, …]
- MIC (C. albicans; reported against other C. albicans strains): 17.3 to 17.5 µM

Compound: FKCRRWQWRMKKLGA [LfcinB-20, short peptide derived from LfcinB, printed …]
- MIC (C. albicans; reported against C. albicans strains): 8 µg/mL
